# According to US8796234B2, “Crosslinking branched molecule through thiol-disulfide exchange to form hydrogel” (Agency for Science, Technology and Research, priority 2009, dated 2014):
# Assay: Drug loading capacity of sample hydrogel
# Format: physicochemical
# Details: poly(BAC2-AEPZ1)-PEG hydrogel
# Method: Aqueous solutions of 5 wt % poly(BAC2-AEPZ1)-PEG was prepared and left to equilibrate overnight at room temperature. Appropriate amounts of doxorubicin (Dox) were loaded to make the concentration of Dox in the polymer solution 5 mg mL^−1. Subsequently, small amount of 5M sodium hydroxide (NaOH) was added in and was being vortexed for a few minutes to adjust pH to more than 12, and the solutions turn blue. Then, the solution was left undisturbed during hydrogel formation for predetermined time. After predetermined time, a slight in excessive of 5M HCl was added to neutralize the hydrogel to keep the hydrogel stable, and the hydrogel turned red. […]
# The results were presented in terms of cumulative release as a function of time: Cumulative amount release (%)=(Mt/M∞) where Mt is the amount of Dox released from the hydrogel at time t and M∞ is the estimate amount of Dox loaded in the hydrogel and was calculated from the weight difference of the initial Dox solution concentration and the remaining Dox solution concentration (combining rinsing water and remaining solution expelled from the hydrogel) after loading.
# 1 mL of Pac/methanol was extracted from saturated stock solution (50 mg/mL) and added to a vial. […] The column effluent was detected UV spectrophotometrically at wavelength of 227 nm. […]
row,loading capacity of drug in the sample hydrogel,Structure (SMILES)
1,5-10%,"COc1cccc2c1C(=O)c1c(O)c3c(c(O)c1C2=O)C[C@@](O)(C(=O)CO)C[C@@H]3O[C@H]1C[C@H](N)[C@H](O)[C@H](C)O1 [Dox, doxorubicin]"
2,30-50%,"CC(=O)O[C@H]1C(=O)[C@@]2(C)[C@H]([C@H](OC(=O)c3ccccc3)[C@]3(O)C[C@H](OC(=O)[C@H](O)[C@@H](NC(=O)c4ccccc4)c4ccccc4)C(C)=C1C3(C)C)[C@]1(OC(C)=O)CO[C@@H]1C[C@@H]2O [Pac, Paclitaxel]"
